Experimental data published in publication PMC9736374, “Design, Synthesis and Antimicrobial Properties of New Tetracyclic Quinobenzothiazine Derivatives” (International Journal of Molecular Sciences, 2022).

Tests used:
[1] = test system: methicillin-resistant S. aureus SA 630 (MRSA2); assay: MBC, agar aliquot subculture method; type: cell-based; details: Staphylococcus aureus; MRSA2 = SA 630
[2] = test system: vancomycin-resistant E. faecalis VRE 342B (VRE1); assay: MIC, microtitration broth method; type: cell-based, Enterococcus faecalis; details: VRE1 = VRE 342B; 24 h, 37 °C
M. smegmatis ATCC 700084 = assay: In vitro antimycobacterial MIC, broth dilution micro-method; type: cell-based, Mycobacterium smegmatis; details: Mycolicibacterium smegmatis, ATCC700084, 72 h; MS = M. smegmatis ATCC 700084; 3 days, 37 °C
Lipophilicity by RP-TLC = type: physicochemical; details: Tris buffer pH 7.4/acetone, read-out: logPTLC
Method: The lipophilicity parameters were determined experimentally using reverse phase thin-layer chromatography (RP-TLC). Chromatograms were prepared on RP-18F254s plates (1.05559.0001, Merck, Germany) precoated with nonpolar silicone oil. Plates were developed in glass chromatography chambers previously saturated with vapor of mobile phase. The mobile phase was composed of 0.2M Tris buffer (pH = 7.4) and acetone in different concentrations, i.e., 50%, 60%, 70%, 80 and 90%. The chromatograms were visualised in UV light (λ = 254 nm). Determination of the RF coefficient was carried out twice for all compounds; in all cases, acetone concentrations used. The final value of RF is the mean of the two measurements. The obtained RF coefficient was used to calculate the value of the RM parameter according to the equation: RM = log [(1/RF) − 1]. By extrapolating RM values to zero acetone concentration, a relative RM0 lipophilicity parameter was obtained, according to the equation: RM = RM0 + bC, where b is slope and C is concentration of acetone in mobile phase. Based on RM0 and the calibration curve, the values of logPTLC for compounds 6a–l were determined. The calibration curve was calculated using the relationship between RM0 of the standard molecules (acetanilide, p-kresol, p-bromoacetophenone, benzophenone, anthracene) and the corresponding logP parameters specified by the extraction method, respectively. RM0 parameters of the standard molecules and quinobenzothiazine derivatives 6a–l were determined in the same empirical conditions.

[3] = test system: Staphylococcus aureus ATCC 29213; assay: MIC, microtitration broth method; type: cell-based; details: ATCC29213; SA = Staphylococcus aureus ATCC 29213; 24 h, 37 °C
[4] = test system: Enterococcus faecalis ATCC 29212; assay: MIC, microtitration broth method; type: cell-based; details: ATCC29212; EF = Enterococcus faecalis; 24 h, 37 °C
[5] = test system: Mycobacterium marinum CAMP 5644; assay: In vitro antimycobacterial MIC, broth dilution micro-method; type: cell-based; details: CAMP5644, 504 h; MM = Mycobacterium marinum CAMP 5644; 21 days, 28 °C
[6] = test system: vancomycin-resistant E. faecalis VRE 725B (VRE3); assay: MBC, agar aliquot subculture method; type: cell-based, Enterococcus faecalis; details: VRE3 = VRE 725B
[7] = test system: methicillin-resistant S. aureus SA 3202 (MRSA1); assay: MIC, microtitration broth method; type: cell-based; details: Staphylococcus aureus; MRSA1 = SA 3202; 24 h, 37 °C
S. aureus = assay: Crystal violet uptake (membrane permeability); type: cell-based, Staphylococcus aureus; details: 4× MIC, 1 h; compared to growth control and 1% Tween 20
Method: Phenothiazines are also known for their ability to interact with and damage the cell wall, which has fatal consequences for the microorganism. Therefore, the bacterial suspensions were treated by compounds 6a, 6e, 6g, 6j and 6k (4× MIC) for 1 h. The uptake of crystal violet was expressed as a percentage compared to the original crystal violet solution.

[8] = test system: Enterococcus faecalis ATCC 29212; assay: MBC, agar aliquot subculture method; type: cell-based; details: ATCC29212; EF = Enterococcus faecalis
[9] = test system: vancomycin-resistant E. faecalis VRE 368 (VRE2); assay: MIC, microtitration broth method; type: cell-based, Enterococcus faecalis; details: VRE2 = VRE 368; 24 h, 37 °C
[10] = test system: methicillin-resistant S. aureus SA 630 (MRSA2); assay: MIC, microtitration broth method; type: cell-based; details: Staphylococcus aureus; MRSA2 = SA 630; 24 h, 37 °C
[11] = test system: Staphylococcus aureus ATCC 29213; assay: MBC, agar aliquot subculture method; type: cell-based; details: ATCC29213; SA = Staphylococcus aureus ATCC 29213
[12] = test system: S. aureus ATCC 29213 respiratory activity; assay: MTT assay of bacterial respiration; type: cell-based, Staphylococcus aureus; details: for Conc.: corresponding multiple of MBC with at least 70% inhibition of respiratory activity / Conc.: lowest multiple of MIC with at least 70% inhibition of respiratory activity: S. aureus ATCC 29213, MTT, 24 h; for Decrease in viability < 70% at MIC value (MTT): S. aureus ATCC 29213, at MIC; for S. aureus Respiration Inhibition: at the concentration given
[13] = test system: methicillin-resistant S. aureus 63718 (MRSA3); assay: MIC, microtitration broth method; type: cell-based; details: Staphylococcus aureus; MRSA3 = 63718; 24 h, 37 °C
[14] = test system: vancomycin-resistant E. faecalis VRE 725B (VRE3); assay: MIC, microtitration broth method; type: cell-based, Enterococcus faecalis; details: VRE3 = VRE 725B; 24 h, 37 °C
[15] = test system: vancomycin-resistant E. faecalis VRE 368 (VRE2); assay: MBC, agar aliquot subculture method; type: cell-based, Enterococcus faecalis; details: VRE2 = VRE 368
[16] = test system: methicillin-resistant S. aureus 63718 (MRSA3); assay: MBC, agar aliquot subculture method; type: cell-based; details: Staphylococcus aureus; MRSA3 = 63718
[17] = test system: methicillin-resistant S. aureus SA 3202 (MRSA1); assay: MBC, agar aliquot subculture method; type: cell-based; details: Staphylococcus aureus; MRSA1 = SA 3202
[18] = test system: vancomycin-resistant E. faecalis VRE 342B (VRE1); assay: MBC, agar aliquot subculture method; type: cell-based, Enterococcus faecalis; details: VRE1 = VRE 342B
[19] = test system: normal human dermal fibroblasts (NHDF); assay: In vitro cell viability, WST-1 assay; type: cell-based; details: 72 h
Method: Compounds were evaluated for their antiproliferative activity using NHDF (normal human dermal fibroblasts, ATCC, Manassas, VA, USA). The cultured cells were kept at 37 °C and 5% CO2. The cells were seeded (1 × 10^4 cells/well/100 μL DMEM supplemented with 10% FCS and streptomycin/penicillin) into 96-well plates (Corning Inc., Corning, NY, USA). Cells were counted using a hemocytometer (Burker chamber) and phase contrast Olympus IX50 microscope equipped with Sony SSC-DC58 AP camera and Olympus DP10 digital camera. The cell viability of the compounds was determined using the Cell Proliferation Reagent WST-1 assay (Roche Molecular Biochemicals, Mannheim, Germany). The examined cells were exposed to the tested compounds (1 mg/mL DMSO stock) for 72 h at various concentrations (0.1–100 μg/mL). The control was included in order to eliminate the DMSO effect at the concentration used. Cell cultures were incubated with WST-1 (10 μL) for 1 h. The absorbance of the samples was measured against a background control at 450 nm using a microplate reader with a reference wavelength at 600 nm. The obtained results are expressed as means of at least two independent experiments performed in triplicate.

| SMILES | MBC [1] [µM] | MIC [2] [µM] | MIC (M. smegmatis ATCC 700084) [µM] | chromatographic logP (Lipophilicity by RP-TLC) | MIC [3] [µM] | MIC [4] [µM] | MIC [5] [µM] | MBC [6] [µM] | MIC [7] [µM] | MBC [8] [µM] | MIC [9] [µM] | MIC [10] [µM] | MBC [11] [µM] | MIC [13] [µM] | MIC [14] [µM] | MBC [15] [µM] | MBC [16] [µM] | MBC [17] [µM] | MBC [18] [µM] | IC50 [19] [µM] | other results |
| --- | --- | --- | --- | --- | --- | --- | --- | --- | --- | --- | --- | --- | --- | --- | --- | --- | --- | --- | --- | --- | --- |
| C[n+]1cc2c(c3ccccc31)Nc1cc(OCc3ccccc3)ccc1S2 [Compound 6k, 10-benzyloxy-5-methyl-12H-quino[3,4-b][1,4]benzothiazinium chloride] | 19.7 | 78.6 | 19.7 | 3.48 | 19.7 | 78.6 | 19.7 | 157 | 19.7 | 78.6 | 157 | 9.83 | 19.7 | 9.83 | 157 | 157 | 9.83 | 19.7 | 78.6 | > 100 | Effect on plasma membrane permeability (uptake of crystal violet) (S. aureus): did not affect plasma membrane permeability; Conc.: corresponding multiple of MBC with at least 70% inhibition of respiratory activity [12]: 2× MIC (2× MBC); Conc.: lowest multiple of MIC with at least 70% inhibition of respiratory activity [12]: 2× MIC (2× MBC); Decrease in viability < 70% at MIC value (MTT) [12]: did not show a decrease in viability < 70%; S. aureus Respiration Inhibition [12]: 97.6% |
| C[n+]1cc2c(c3ccccc31)Nc1ccc(OCc3ccccc3)cc1S2 [Compound 6j, 9-benzyloxy-5-methyl-12H-quino[3,4-b][1,4]benzothiazinium chloride] | 9.83 | 19.7 | 9.83 | 3.41 | 9.83 | 19.7 | 2.5 | 39.3 | 4.91 | 39.3 | 78.6 | 9.83 | 9.83 | 2.46 | 39.3 | 78.6 | 2.46 | 9.83 | 19.7 | 37.7 | Effect on plasma membrane permeability (uptake of crystal violet) (S. aureus): did not affect plasma membrane permeability; S. aureus Respiration Inhibition [12]: 91.3% |
| CCCOc1ccc2c(c1)Sc1c[n+](C)c3ccccc3c1N2 [Compound 6a, 9-propoxy-5-methyl-12H-quino[3,4-b][1,4]benzothiazinium chloride] | 22.3 | 89.1 | 22.3 | 1.65 | 22.3 | 89.1 | 22.3 | 178 | 22.3 | 89.1 | 89.1 | 22.3 | 22.3 | 11.1 | 89.1 | 89.1 | 11.1 | 22.3 | 89.1 | > 100 | Effect on plasma membrane permeability (uptake of crystal violet) (S. aureus): did not affect plasma membrane permeability; Conc.: corresponding multiple of MBC with at least 70% inhibition of respiratory activity [12]: 2× MIC (2× MBC); Conc.: lowest multiple of MIC with at least 70% inhibition of respiratory activity [12]: 2× MIC (2× MBC); Decrease in viability < 70% at MIC value (MTT) [12]: did not show a decrease in viability < 70%; S. aureus Respiration Inhibition [12]: 97.7% |
| C=CCOc1ccc2c(c1)Nc1c(c[n+](C)c3ccccc13)S2 [Compound 6e, 10-allyloxy-5-methyl-12H-quino[3,4-b][1,4]benzothiazinium chloride] | 44.8 | 179 | 22.4 | 2.47 | 44.8 | 89.6 | 11.2 | 89.6 | 44.8 | 89.6 | 179 | 44.8 | 44.8 | 22.4 | 89.6 | 179 | 22.4 | 44.8 | 179 | > 100 | Effect on plasma membrane permeability (uptake of crystal violet) (S. aureus): did not affect plasma membrane permeability; Conc.: corresponding multiple of MBC with at least 70% inhibition of respiratory activity [12]: 2× MIC (2× MBC); Conc.: lowest multiple of MIC with at least 70% inhibition of respiratory activity [12]: 2× MIC (2× MBC); Decrease in viability < 70% at MIC value (MTT) [12]: did not show a decrease in viability < 70%; S. aureus Respiration Inhibition [12]: 97.4% |
| CCCOc1cccc2c1Nc1c(c[n+](C)c3ccccc13)S2 [Compound 6c, 11-propoxy-5-methyl-12H-quino[3,4-b][1,4]benzothiazinium chloride] | 178 | 178 | 44.6 | 1.18 | 178 | 178 | 44.6 | 178 | 178 | 178 | 178 | 178 | 178 | 178 | 89.1 | 178 | 178 | 178 | 178 | > 100 |  |
| C=CCOc1cccc2c1Nc1c(c[n+](C)c3ccccc13)S2 [Compound 6f, 11-allyloxy-5-methyl-12H-quino[3,4-b][1,4]benzothiazinium chloride] | 359 | 359 | 89.6 | 2.29 | 359 | 179 | 44.8 | 179 | 359 | 359 | 359 | 359 | 359 | 179 | 179 | 359 | 359 | 359 | 359 | > 100 |  |
